Laboratory results: patent US7229966B2, “Compositions and methods for enhanced mucosal delivery of Y2 receptor-binding peptides and methods for treating and preventing obesity” (Nastech Pharmaceutical Company Inc., priority 2002, dated 2007)
Where two headings read alike, the source gives them in different places.

Experiments:
[1] = 0.5 mg/mL in phosphate buffer, pH 7.4; vortex mixing 1 min; cited from earlier work
[2] = anesthetized rats, cited from earlier work
[3] = aqueous solution at physiologic pH; cited from earlier work
ciliary motility = conditions: cited from earlier work
aminopeptidases = conditions: cited from earlier work

For “human growth hormone (hGH): peptide hormone human growth hormone”, the “drug precipitated as insoluble aggregates” value [1] is listed as 67%, the nasal bioavailability ([2]; with N-acetyl-L-cysteine (ACS)) is listed as 12.2% and the nasal bioavailability ([2]; without N-acetyl-L-cysteine) is listed as 7.5%.
For `CCN(CC)/[N+]([O-])=N/O.CCNCC` [diethylamine/NO], the NO release time [3] is listed as < 3 min.
For “2-alkyl-4-hydroxyquinolines [pyo compound]”, the “concentration producing ciliostasis / inhibiting ciliary motility” value (ciliary motility) is listed as 50 µg/mL.
For `NCCN(CCN)/[N+]([O-])=N/O` [diethylenetriamine/NO (DETANO), diethylenetriamine/NO], the NO release time [3] is given as “approximately 20 hours”.
Work on `CC(C(=O)[O-])c1ccc(NC(=O)c2ccccc2O)cc1.[Na+]` (stereo not drawn) [Sodium Salt of Carrier B, Sodium 2-(4-(N-salicyloyl)aminophenyl)propionate] yielded a melting point of 236 to 238 °C.
For `CC(C)CC(N)B(O)O` (stereo not drawn) [boro-leucine], the “effectiveness in enzyme inhibition relative to bestatin” value (aminopeptidases) is given as “more than 100 times” and the “effectiveness in enzyme inhibition relative to puromycin” value (aminopeptidases) is given as “more than 1000 times”.
